We go through seven molecules from patent publication US9981940B2, “Aryl sulfide derivatives and aryl sulfoxide derivatives as acaricides and insecticides” (BAYER CROPSCIENCE AKTIENGESELLSCHAFT, priority 2013, dated 2018).

For data set [1], the system named is Boophilus microplus. In words: Boophilus microplus injection test (BOOPMI Inj). Particulars: application rate of 20 μg/animal, assessed after 7 days by laying of fertile eggs. It counts as in vivo. In short, it runs like this: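 Engorged adult female ticks (5 per test) injected in the abdomen with 1 μl of compound solution in DMSO, then held in a climate-controlled room. Efficacy scored after 7 days from fertile egg laying, with 100% meaning no fertile eggs and 0% all eggs fertile.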

The test system of data set [2] is Phaedon cochleariae. The data set is described as follows: Phaedon cochleariae spray test (PHAECO). It counts as in vivo. As to conditions: application rate of 500 g/ha, after 7 days. In short, it runs like this:
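Chinese cabbage (Brassica pekinensis) leaf discs sprayed with acetone/DMF/emulsifier formulation diluted in emulsifier-containing water, dried, then populated with mustard beetle larvae. Efficacy scored after 7 days as % larvae killed (100% = all killed, 0% = none).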

The subject of data set [3] is Tetranychus urticae. The data set is described as follows: Tetranychus urticae spray test, OP-resistant (TETRUR). It counts as in vivo. As to conditions: application rate of 500 g/ha, after 6 days; for pest or weed control at 500 g/ha: Tetranychus urticae, 144 h, read-out: efficacy. In short, it runs like this:
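Mortality as % efficacy (0% = no mites killed) read 6 days after spraying. Formulation: active ingredient in acetone/dimethylformamide plus emulsifier, diluted with emulsifier-containing water, applied to Phaseolus vulgaris leaf discs carrying every life stage of OP-resistant spider mites.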

Data set [4] deals with Meloidogyne incognita. In words: Meloidogyne incognita test (MELGIN). It counts as in vivo. Particulars: application rate of 20 ppm; after 14 days, by formation of galls. As to the method: Meloidogyne Incognita Test (MELGIN)
• Solvent: 125.0 parts by weight of acetone
To produce an appropriate active ingredient formulation, 1 part by weight of active ingredient is mixed with the specified amounts of solvent and the concentrate is diluted to the desired concentration with water.
Vessels are filled with sand, active ingredient solution, an egg/larvae suspension of the southern root-knot nematode (Meloidogyne incognita) and lettuce seeds. The lettuce seeds germinate and the plants develop. The galls develop on the roots
After 14 days, the nematicidal efficacy in % is determined by the formation of galls. 100% means that no galls have been found; 0% means that the number of galls on the treated plants corresponds to the untreated control.

Data set [5] in a line: log P by HPLC (OECD Guideline 117), method [a] acidic range. It counts as physicochemical. As to conditions: for logP[a]: HPLC, method [a] acidic range; for chromatographic logP: reversed-phase C18 HPLC column, acidic range. As to the method: (§1) The log P values were determined analogously to OECD Guideline 117 (EC Directive 92/69/EEC) by HPLC (high-performance liquid chromatography) using reversed-phase columns (C 18), by the following methods:
[a] The LC-MS determination in the acidic range is effected at pH 2.7 with 0.1% aqueous formic acid and acetonitrile (contains 0.1% formic acid) as eluents; linear gradient from 10% acetonitrile to 95% acetonitrile.

Data set [6] is described as follows: log P by HPLC (OECD Guideline 117), method [b] neutral range. It counts as physicochemical. Particulars: HPLC; for logP[b]: method [b] neutral range; for chromatographic logP: reversed-phase C18 HPLC column, neutral range, pH 7.8. The method, then: as §1
[b] The LC-MS determination in the neutral range is effected at pH 7.8 with 0.001 molar aqueous ammonium hydrogencarbonate solution and acetonitrile as eluents; linear gradient from 10% acetonitrile to 95% acetonitrile.

Data set [7] deals with Myzus persicae. In words: Myzus persicae spray test (MYZUPE). It counts as in vivo. As to conditions: after 6 days. As to the method:
Myzus persicae—Spray Test (MYZUPE)
• Solvent: 78 parts by weight of acetone • 1.5 parts by weight of dimethylformamide • Emulsifier: 0.5 part by weight of alkylaryl polyglycol ether
To produce an appropriate active ingredient formulation, 1 part by weight of active ingredient is mixed with the specified amounts of solvent and emulsifier, and the concentrate is diluted to the desired concentration with emulsifier-containing water.
Discs of Chinese cabbage leaves (Brassica pekinensis) infested by all stages of the green peach aphid (Myzus persicae) are sprayed with an active ingredient formulation of the desired concentration.
After 6 days, the activity in % is determined 100% means that all the aphids have been killed; 0% means that none of the aphids have been killed.

Data set [8] deals with Spodoptera frugiperda. In words: Spodoptera frugiperda spray test (SPODFR). It counts as in vivo. Particulars: application rate of 500 g/ha; after 7 days. As to the method:
Spodoptera frugiperda—Spray Test (SPODFR)
• Solvent: 78.0 parts by weight of acetone • 1.5 parts by weight of dimethylformamide • Emulsifier: alkylaryl polyglycol ether
To produce an appropriate active ingredient formulation, 1 part by weight of active ingredient is dissolved using the specified parts by weight of solvent and made up with water containing an emulsifier concentration of 1000 ppm until the desired concentration is attained. To produce further test concentrations, the preparation is diluted with emulsifier-containing water.
Leaf discs of maize (Zea mays) are sprayed with an active ingredient formulation of the desired concentration and, after drying, populated with caterpillars of the armyworm (Spodoptera frugiperda).
After 7 days, the activity in % is determined 100% means that all caterpillars have been killed; 0% means that none of the caterpillars have been killed.

Data set [9] has as its system Lucilia cuprina. In words: Lucilia cuprina test (LUCICU). It counts as in vivo. As to conditions: application rate of 100 ppm; L1 larvae; after 2 days. As to the method:
Lucilia cuprina Test (LUCICU)
• Solvent: dimethyl sulphoxide
To prepare an appropriate active ingredient formulation, 10 mg of active ingredient are mixed with 0.5 ml of dimethyl sulphoxide, and the concentrate is diluted with water to the desired concentration.
About 20 L1 larvae of the Australian sheep blowfly (Lucilia cuprina) are transferred into a test vessel containing minced horsemeat and the active ingredient preparation of the desired concentration.
After 2 days, the kill in % is determined 100% means that all the larvae have been killed; 0% means that none of the larvae have been killed.

The mark [10] stands for this setting: pH 2.7, HPLC method [a], read-out: logP[a].
The mark [11] stands for this setting: pH 2.7, HPLC, pH 2.7, read-out: log P[a].

For the molecule `COc1nn(-c2cc([S+]([O-])CC(F)(F)F)c(Cl)cc2Cl)c(=O)n1C1CC1` (stereo not shown) [Example 106], the efficacy in [1], in data set [2] and in data set [3] was 100% throughout. This molecule displayed a nematicidal efficacy in data set [4] of 90%. The “logP[a]” value in data set [5] stood at 2.65. Moreover, the “logP[b]” value in data set [6] turned out to be 2.61.
Regarding `CCCn1c(OC)nn(-c2cc([S+]([O-])CC(F)(F)F)c(C)cc2F)c1=O` (stereo not shown) [Example 411], the efficacy in data set [1] amounted to 100%; in data set [7] (application rate of 100 g/ha) it was 90%; in data set [2], 100%; in data set [8] it was 100%; in data set [3] it was 100%. Further, the “logP[a]” value in [5] is recorded as 2.44. In addition, the “logP[b]” value in data set [6] was determined as 2.41.
With `COC1=CC(=O)N(c2cc([S+]([O-])CC(F)(F)F)c(C)cc2F)C1` (stereo not shown) [Example 311, 1-{2-Fluoro-4-methyl-5-[(2,2,2-trifluoroethyl)sulphinyl]phenyl}-4-methoxy-1,5-dihydro-2H-pyrrol-2-one], the values for the efficacy in data set [1] and in data set [7] (application rate of 500 g/ha) were 100% and 90%, respectively. Besides, the pest or weed control at 500 g/ha in data set [2] (Phaedon cochleariae, 168 h, read-out: efficacy) turned out to be 100%; in data set [3], 100%. Moreover, the chromatographic logP in [5] (setting [10]) is 1.83; in [5] (setting [11]), 1.83; in data set [6], 1.84.
As to `Cc1cc(F)c(N2CC(OCC3CC3)=CC2=O)cc1SCC(F)(F)F` [Example 331], the figures for the efficacy in [2] and in data set [3] were 83% and 90%, respectively. Moreover, the nematicidal efficacy in data set [4] stood at 90%. For the same molecule, the “logP[a]” value in [5] came out at 3.64. Further, in [6], the “logP[b]” value came to 3.58.
On to `Cc1cc(F)c(-n2ncn(C(C)C)c2=O)cc1SCC(F)(F)F` [Example 4, 2-{2-Fluoro-4-methyl-5-[(2,2,2-trifluoroethyl)sulphanyl]phenyl}-4-isopropyl-2,4-dihydro-3H-1,2,4-triazol-3-one], for which, in [9], the “efficacy (kill)” value is recorded as 80%. The pest or weed control at 500 g/ha in [3] amounted to 90%. Also, the nematicidal efficacy in data set [4] was 90%. Moreover, the figures for the chromatographic logP in data set [5] (setting [10]), in [5] (setting [11]) and in data set [6] were 2.82, 2.82 and 2.97, respectively.
For the molecule `COC1=CC(=O)N(c2ccc(C#N)c(SCC(F)(F)F)c2)C1` [Example 320], the efficacy in [7] (application rate of 500 g/ha) is 90%; in data set [2], 100%. For the same molecule, the “logP[a]” value in [5] was 2.45. For the same molecule, the “logP[b]” value in [6] came to 2.43.
As to `C=CCn1c([S+]([O-])CCC)nn(-c2cc([S+]([O-])CC(F)(F)F)c(C)cc2F)c1=O` (stereo not shown) [Example 423], the results for the efficacy in data set [1], in data set [7] (application rate of 500 g/ha) and in data set [3] were 100%, 90% and 90%, respectively. In addition, the “logP[a]” value in [5] is reported as 2.34. The “logP[b]” value in [6] is on record as 2.37.
